{
  "source": "patent US20260250519A1",
  "about": "“Copper Containing Compounds and Compositions for Antimicrobial Paint and Coating” (ARXADA, LLC, priority 2022, published 2026)",
  "type_in_all_cases": "cell-based",
  "key": {"[1]": {"tested_on": "Aspergillus niger (ATCC 6275), Aureobasidium pullulans (ATCC 9348) and Penicillium citrinum (ATCC 9849)", "assay": "ASTM resistance to growth of mold on interior coatings in an environmental chamber", "conditions": "no Cu additive, Quat level 2000 ppm; 4 weeks in chamber", "protocol": "Two coatings were brushed onto both faces and all edges of wood panel (allowing 1 day between coats). The resulting coated panels were dried at 23±2° C. and 50±5% relative humidity for 4 days. […] In the environmental chamber, the dried coated panels were hung vertically with the bottom approximately 3 inch above the surface of the inoculated soil and with sufficient spacing to allow free circulation of air and to prevent contact between panels or with wall surfaces. […] The degrees of fungal contamination were assessed using the rating scale in Table 9."}, "[2]": {"tested_on": "Escherichia coli (ATCC 8739)", "assay": "Modified JIS Z2801, increased inoculum, Quat-containing matte wall paint", "conditions": "Quat 5200 ppm, Cu 0 ppm in matte wall paint", "protocol": "(§1) The antibacterial efficacies of copper-containing composition in dry paint film were evaluated using a modified JIS Z2801 method (Antimicrobial Product-Test for Antimicrobial Activity and Efficacy: 2000) by reducing contact time from 24 hour to 2 hour, including Pseudomonas aeruginosa as an additional bacteria and increasing inoculum strength to 5.0 to 10.0×10^7 cfm/mL. […] The paints were brushed onto the sterilized plastic filter paper. Each side of the filter paper was painted twice and the resulting coated paper was dried at ambient condition for 3 days. The dried coatings were then leached against 10 L water for 24 hours (4 water changes for the first 8 hour). Each of three (3) bacterial inoculum (0.4 mL): Escherichia coli (ATCC 8739), Staphylococcus aureus (ATCC 6538), Pseudomonas aeruginosa (ATCC 15442) was used to inoculate the dry film (40 mm×40 mm) of test paint to achieve 5.0 to 10.0×10^7 cfm/mL of inoculum concentration per each bacteria on dry surface of each test paint. The test paints were incubated at 35±1° C. and 90% RH for 2 hour. The degrees of bacterial contamination were determined relative to blank paint via viable cell count of bacteria by agar plate culture method."}, "[3]": {"tested_on": "Pseudomonas aeruginosa (ATCC 15442)", "assay": "Modified JIS Z2801, increased inoculum, Quat-containing matte wall paint", "conditions": "Quat 5200 ppm, Cu 0 ppm in matte wall paint", "protocol": "as §1"}, "[4]": {"tested_on": "Staphylococcus aureus (ATCC 6538)", "assay": "Modified JIS Z2801, increased inoculum, Quat-containing matte wall paint", "conditions": "Quat 5200 ppm, Cu 0 ppm in matte wall paint", "protocol": "as §1"}, "[5]": {"tested_on": "Pseudomonas aeruginosa (ATCC 15442)", "assay": "Interim EPA method with dry and chemical abrasion, Quat-containing matte wall paint", "conditions": "Quat 5200 ppm, Cu 0 ppm; for 2 hr Contact Time % ↓ / 2 hr Contact Time Log10 ↓: relative to uncoated substrate", "protocol": "(§2) The antibacterial efficacies of copper-containing composition in dry paint film were evaluated using an interim EPA method (Interim Method for Evaluating the Efficacy of Antimicrobial Surface Coatings: Oct. 2, 2020). […] The paints were drawn-down onto the sterilized steel substrate (1 inch by 1 inch of AISI type 304 stainless steel). The resulting coated substrate was dried at ambient condition for at least 24 hours. Some of the dried coated substrates were further subject to dry and chemical abrasion for 1 week residual efficacy claim. As for dry abrasion, the coated substrate was exposed to 10 cycles of dry abrasion by a Scotch Brite Non-Scratch Scrub Sponge using a BYK Gardner-Scrub machine, each of which comprises 16 single passes. As for chemical abrasion, the scrub sponge was soaked in sodium hypochlorite (2000 ppm NaOCl) solution and EPA-registered Quat-containing Nugen™ MB^5N-256 (256× dilution) disinfectant prior to the abrasion. The coated substrate was exposed to 10 cycles of chemical abrasion by the soaked scrub sponge, each of which comprises 8 single passes. After rinsing and drying to remove the residual NaOCl and Quat, each of two (2) bacterial inoculum ([…]): Staphylococcus aureus (ATCC 6538) and Pseudomonas aeruginosa (ATCC 15442) was used to inoculate the dry film of test paint to achieve 10^4 to 10^5 cfm/carrier of bacteria on dry surface of each test paint. The test paints were incubated at 22° C. and 30-40% RH for 2 hours. The degrees of bacterial contamination were determined via viable cell count for antibacterial efficacy relative to the uncoated substrate."}, "[6]": {"tested_on": "Staphylococcus aureus (ATCC 6538)", "assay": "Interim EPA method with dry and chemical abrasion, Quat-containing matte wall paint", "conditions": "Quat 5200 ppm, Cu 0 ppm; for 2 hr Contact Time % ↓ / 2 hr Contact Time Log10 ↓: relative to uncoated substrate", "protocol": "as §2"}},
  "data": [
    {"substance": "N,N-Didecyl-N,N-dimethylammonium carbonate/bicarbonate [reference compound]", "values": [
      {"measurement": "Avg Rating", "setting": "[1]", "value": 3.3}
    ]},
    {"substance": "alkyl (50% C14, 10% C16, 40% C12) dimethyl benzyl ammonium chloride [Quat]", "values": [
      {"measurement": "2 hr Contact Time Avg", "setting": "[2]", "value": "1.4E+02"},
      {"measurement": "2 hr Contact Time Log10", "setting": "[2]", "value": 2.16},
      {"measurement": "2 hr Contact Time Avg", "setting": "[3]", "value": "2.9E+05"},
      {"measurement": "2 hr Contact Time Log10", "setting": "[3]", "value": 5.46},
      {"measurement": "2 hr Contact Time Avg", "setting": "[4]", "value": "<1.5E+02"},
      {"measurement": "2 hr Contact Time Log10", "setting": "[4]", "value": "<2.19"},
      {"measurement": "2 hr Contact Time Avg", "setting": "[5]; Dry Abraded", "value": "1.0E+2"},
      {"measurement": "2 hr Contact Time Log10", "setting": "[5]; Dry Abraded", "value": 2.01},
      {"measurement": "2 hr Contact Time % ↓", "setting": "[5]; Dry Abraded", "value": 99.6285, "unit": "%"},
      {"measurement": "2 hr Contact Time Log10 ↓", "setting": "[5]; Dry Abraded", "value": 2.43},
      {"measurement": "2 hr Contact Time Avg", "setting": "[5]; NaOCl Abraded", "value": "1.4E+0"},
      {"measurement": "2 hr Contact Time Log10", "setting": "[5]; NaOCl Abraded", "value": 0.16},
      {"measurement": "2 hr Contact Time % ↓", "setting": "[5]; NaOCl Abraded", "value": 99.9994, "unit": "%"},
      {"measurement": "2 hr Contact Time Log10 ↓", "setting": "[5]; NaOCl Abraded", "value": 4.28},
      {"measurement": "2 hr Contact Time Avg", "setting": "[5]; Quat Abraded", "value": "1.1E+2"},
      {"measurement": "2 hr Contact Time Log10", "setting": "[5]; Quat Abraded", "value": 2.06},
      {"measurement": "2 hr Contact Time % ↓", "setting": "[5]; Quat Abraded", "value": 99.5831, "unit": "%"},
      {"measurement": "2 hr Contact Time Log10 ↓", "setting": "[5]; Quat Abraded", "value": 2.38},
      {"measurement": "2 hr Contact Time Avg", "setting": "[5]; Unexposed", "value": "1.7E+3"},
      {"measurement": "2 hr Contact Time Log10", "setting": "[5]; Unexposed", "value": 3.23},
      {"measurement": "2 hr Contact Time % ↓", "setting": "[5]; Unexposed", "value": 93.8340, "unit": "%"},
      {"measurement": "2 hr Contact Time Log10 ↓", "setting": "[5]; Unexposed", "value": 1.21},
      {"measurement": "2 hr Contact Time Avg", "setting": "[6]; Dry Abraded", "value": "1.0E+0"},
      {"measurement": "2 hr Contact Time Log10", "setting": "[6]; Dry Abraded", "value": 0.00},
      {"measurement": "2 hr Contact Time % ↓", "setting": "[6]; Dry Abraded", "value": 99.9990, "unit": "%"},
      {"measurement": "2 hr Contact Time Log10 ↓", "setting": "[6]; Dry Abraded", "value": 5.00},
      {"measurement": "2 hr Contact Time Avg", "setting": "[6]; NaOCl Abraded", "value": "1.0E+0"},
      {"measurement": "2 hr Contact Time Log10", "setting": "[6]; NaOCl Abraded", "value": 0.00},
      {"measurement": "2 hr Contact Time % ↓", "setting": "[6]; NaOCl Abraded", "value": 99.9990, "unit": "%"},
      {"measurement": "2 hr Contact Time Log10 ↓", "setting": "[6]; NaOCl Abraded", "value": 5.00},
      {"measurement": "2 hr Contact Time Avg", "setting": "[6]; Unexposed", "value": "1.0E+0"},
      {"measurement": "2 hr Contact Time Log10", "setting": "[6]; Unexposed", "value": 0.00},
      {"measurement": "2 hr Contact Time % ↓", "setting": "[6]; Unexposed", "value": 99.9990, "unit": "%"},
      {"measurement": "2 hr Contact Time Log10 ↓", "setting": "[6]; Unexposed", "value": 5.00}
    ]}
  ]
}
